Legend:
[1] = molecular target: Prostaglandin E2 receptor EP4 subtype (Homo sapiens, UniProt P35408); assay: Binding affinity at human Prostanoid EP4 receptor.
[2] = molecular target: Prostaglandin E2 receptor EP2 subtype (Homo sapiens, UniProt P43116); assay: Binding affinity at human Prostanoid EP2 receptor.
[3] = molecular target: T1, Prostaglandin E2 receptor EP3 subtype (Homo sapiens, UniProt P43115); assay: Binding affinity at human Prostanoid EP3 receptor.
T1 sequence (P43115 whole entry): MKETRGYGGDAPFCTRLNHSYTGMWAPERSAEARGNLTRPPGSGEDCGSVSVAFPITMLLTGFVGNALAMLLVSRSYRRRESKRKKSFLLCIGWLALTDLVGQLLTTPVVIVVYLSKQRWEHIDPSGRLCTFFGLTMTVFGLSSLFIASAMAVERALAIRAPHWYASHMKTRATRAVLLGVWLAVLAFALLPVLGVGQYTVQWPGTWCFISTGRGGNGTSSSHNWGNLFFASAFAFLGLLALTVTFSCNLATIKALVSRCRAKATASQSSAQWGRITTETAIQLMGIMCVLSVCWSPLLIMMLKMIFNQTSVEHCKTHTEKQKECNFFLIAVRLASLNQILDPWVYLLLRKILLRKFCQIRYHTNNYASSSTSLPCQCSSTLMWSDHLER

[4] = molecular target: T2, Prostaglandin E2 receptor EP1 subtype (Homo sapiens, UniProt P34995); assay: Binding affinity at human Prostanoid EP1 receptor.
T2 sequence (P34995 whole entry): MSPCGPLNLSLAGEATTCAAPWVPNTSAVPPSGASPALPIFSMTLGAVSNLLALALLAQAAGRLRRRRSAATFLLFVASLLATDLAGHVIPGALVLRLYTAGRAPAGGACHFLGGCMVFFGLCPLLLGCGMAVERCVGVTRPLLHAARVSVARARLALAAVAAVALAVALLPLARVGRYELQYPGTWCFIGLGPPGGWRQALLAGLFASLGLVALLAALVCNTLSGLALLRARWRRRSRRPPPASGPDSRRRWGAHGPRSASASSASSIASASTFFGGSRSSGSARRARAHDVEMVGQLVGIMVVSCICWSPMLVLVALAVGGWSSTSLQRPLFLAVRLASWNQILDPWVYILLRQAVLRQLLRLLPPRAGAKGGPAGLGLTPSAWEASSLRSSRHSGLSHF

[5] = molecular target: T3, Prostaglandin D2 receptor (Homo sapiens, UniProt Q13258); assay: Inhibitory constant against Prostanoid DP receptor
T3 sequence (Q13258 whole entry): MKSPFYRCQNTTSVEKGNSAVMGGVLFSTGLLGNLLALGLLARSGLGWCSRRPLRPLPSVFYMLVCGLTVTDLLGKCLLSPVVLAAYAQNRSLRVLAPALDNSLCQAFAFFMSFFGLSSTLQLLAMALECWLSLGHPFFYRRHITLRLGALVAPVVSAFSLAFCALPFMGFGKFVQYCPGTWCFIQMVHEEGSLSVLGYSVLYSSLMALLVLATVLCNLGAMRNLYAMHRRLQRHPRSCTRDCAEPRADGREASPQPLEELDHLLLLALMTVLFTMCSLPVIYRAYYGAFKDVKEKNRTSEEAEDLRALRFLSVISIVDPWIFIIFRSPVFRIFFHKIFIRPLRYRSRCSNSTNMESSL

[6] = molecular target: Prostaglandin F2-alpha receptor (Homo sapiens, UniProt P43088); assay: Inhibitory constant against Prostanoid FP receptor
Prostacyclin receptor = Prostacyclin receptor (Homo sapiens, UniProt P43119); assay: Inhibitory constant against Prostanoid IP receptor
Chain of Prostacyclin receptor (P43119 whole entry): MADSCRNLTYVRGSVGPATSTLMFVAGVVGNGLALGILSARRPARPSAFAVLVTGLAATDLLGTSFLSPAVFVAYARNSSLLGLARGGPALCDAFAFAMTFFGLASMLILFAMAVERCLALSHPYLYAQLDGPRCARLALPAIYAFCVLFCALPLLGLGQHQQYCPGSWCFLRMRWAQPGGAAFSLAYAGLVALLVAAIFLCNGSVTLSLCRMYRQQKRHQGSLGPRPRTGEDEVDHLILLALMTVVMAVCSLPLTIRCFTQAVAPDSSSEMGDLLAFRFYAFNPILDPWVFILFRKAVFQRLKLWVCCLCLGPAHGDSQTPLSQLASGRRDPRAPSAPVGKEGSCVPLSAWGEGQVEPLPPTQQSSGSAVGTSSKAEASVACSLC

Chain of Prostaglandin E2 receptor EP2 subtype (P43116 whole entry): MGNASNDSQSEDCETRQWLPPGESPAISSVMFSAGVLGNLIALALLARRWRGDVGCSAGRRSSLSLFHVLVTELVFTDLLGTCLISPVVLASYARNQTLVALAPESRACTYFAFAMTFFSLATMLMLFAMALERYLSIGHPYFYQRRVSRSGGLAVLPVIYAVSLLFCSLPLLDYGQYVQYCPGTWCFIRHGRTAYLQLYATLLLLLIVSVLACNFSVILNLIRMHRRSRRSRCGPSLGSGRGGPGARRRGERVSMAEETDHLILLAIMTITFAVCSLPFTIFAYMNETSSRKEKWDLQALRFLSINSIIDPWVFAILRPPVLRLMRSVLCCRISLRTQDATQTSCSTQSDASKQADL
Chain of Prostaglandin E2 receptor EP4 subtype (P35408 whole entry): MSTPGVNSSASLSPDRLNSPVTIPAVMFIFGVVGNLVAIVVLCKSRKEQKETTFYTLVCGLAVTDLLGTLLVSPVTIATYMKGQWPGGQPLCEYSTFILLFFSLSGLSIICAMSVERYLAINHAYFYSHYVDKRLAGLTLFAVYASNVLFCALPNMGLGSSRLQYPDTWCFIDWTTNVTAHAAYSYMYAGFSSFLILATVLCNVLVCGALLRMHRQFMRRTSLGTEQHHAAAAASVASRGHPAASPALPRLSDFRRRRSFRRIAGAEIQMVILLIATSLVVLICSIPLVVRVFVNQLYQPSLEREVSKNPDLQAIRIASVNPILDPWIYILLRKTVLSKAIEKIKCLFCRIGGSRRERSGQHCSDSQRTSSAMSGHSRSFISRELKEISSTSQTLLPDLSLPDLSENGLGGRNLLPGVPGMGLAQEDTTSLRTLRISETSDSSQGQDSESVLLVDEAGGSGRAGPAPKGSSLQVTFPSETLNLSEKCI
Chain of Prostaglandin F2-alpha receptor (P43088 whole entry): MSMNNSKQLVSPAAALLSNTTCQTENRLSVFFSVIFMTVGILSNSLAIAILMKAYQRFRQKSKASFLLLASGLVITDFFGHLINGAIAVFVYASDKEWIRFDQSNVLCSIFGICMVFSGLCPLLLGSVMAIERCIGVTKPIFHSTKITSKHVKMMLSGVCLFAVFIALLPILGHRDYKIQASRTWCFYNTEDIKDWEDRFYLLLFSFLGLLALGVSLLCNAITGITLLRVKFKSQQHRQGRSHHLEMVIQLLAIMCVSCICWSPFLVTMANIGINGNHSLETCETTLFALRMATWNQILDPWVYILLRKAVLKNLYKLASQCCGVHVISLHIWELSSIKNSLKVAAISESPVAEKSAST

SMILES | Ki [1] [nM] | Ki [2] [nM] | Ki [3] [nM] | Ki [4] [nM] | Ki [5] [nM] | Ki [6] [nM] | Ki (Prostacyclin receptor) [nM]
c1ccc(CCSCc2ccc(-c3ccccc3CCc3nnn[nH]3)cc2)cc1 | 2600 | 63 | 1000 | 4900 | – | – | –
O=S(=O)(CCc1ccccc1-c1ccc(CSCCc2ccccc2)cc1)NS(=O)(=O)c1cccs1 | 1100 | 3000 | 610 | 7500 | – | – | –
O=C(NS(=O)(=O)CCc1ccccc1-c1ccc(CSCCc2ccccc2)cc1)c1cccs1 | 690 | 2500 | 480 | 2800 | – | – | –
Cc1cccc(OCCCOc2ccc(-c3ccccc3CC(C)C(=O)NS(=O)(=O)c3cccs3)cc2)c1 (configuration not stated) | 1100 | 2900 | 340 | 5800 | – | – | –
O=C(/C=C/c1ccccc1-c1cccc(/C=C/c2ccc3ccc(Cl)cc3n2)c1)NS(=O)(=O)c1cccs1 | 28000 | 70000 | 110 | 41000 | – | – | –
CCCCc1nn(-c2ccccc2C(F)(F)F)c(=O)n1Cc1ccc(-c2ccccc2S(=O)(=O)NC(=O)c2cccs2)cc1 | 46 | > 10000 | 7000 | > 10000 | – | – | –
CSc1cccc(-c2ccccc2CCC(=O)NS(=O)(=O)c2cccs2)c1 | 25000 | 31000 | 240 | 27000 | – | – | –
O=C(CCc1ccccc1-c1ccccc1CSCCc1ccccc1)NS(=O)(=O)c1cccs1 | 1500 | 3800 | 510 | 83 | – | – | –
O=C(CCCc1ccccc1-c1ccc(CSCCc2ccccc2)cc1)NS(=O)(=O)c1cccs1 | 700 | 1800 | 200 | 3000 | – | – | –
O=C(CCc1ccccc1-c1cccc(/C=C/c2ccc3ccc(Cl)cc3n2)c1)NS(=O)(=O)c1cccs1 | 19000 | 16000 | 120 | 49000 | – | – | –
O=C(CCc1ccccc1-c1ccc(CSCCc2ccccc2)cc1)NS(=O)(=O)c1cccs1 | 1100 | 2700 | 46 | 1700 | – | – | –
O=C(O)CCc1ccccc1-c1ccc(CSCCc2ccccc2)cc1 | 4400 | 140 | 740 | 8600 | – | – | –
CS(=O)(=O)c1cccc(-c2ccccc2CCC(=O)NS(=O)(=O)c2cccs2)c1 | > 100000 | > 100000 | 5900 | > 100000 | – | – | –
O=C(Cc1ccccc1-c1ccc(CSCCc2ccccc2)cc1)NS(=O)(=O)c1cccs1 | 850 | 590 | 330 | 3700 | – | – | –
O=C(CCc1ccccc1-c1cccc(CSCCc2ccccc2)c1)NS(=O)(=O)c1cccs1 | 1000 | 2000 | 27 | 820 | – | – | –
Cc1cccc(OCCCOc2ccc(-c3ccccc3CCC(=O)NS(=O)(=O)c3cccs3)cc2)c1 | 1600 | 2900 | 53 | 4600 | – | – | –
O=C(CCc1ccccc1-c1ccc(OCCCOc2cccc(CSCCc3ccccc3)c2)cc1)NS(=O)(=O)c1cccs1 | 7100 | 4900 | 16 | 13000 | – | – | –
O=C(/C=C/c1ccccc1-c1ccc(Cl)c(Cl)c1)NS(=O)(=O)c1cccs1 | 3700 | 27000 | 25 | 8200 | 830 | 17000 | 7300
Cc1cccc(OCCCOc2ccc(-c3ccccc3CNC(=O)NS(=O)(=O)c3cccs3)cc2)c1 | 2900 | 8600 | 150 | 15000 | – | – | –
Cc1cccc(OCCCOc2ccc(-c3ccccc3COC(=O)NS(=O)(=O)c3cccs3)cc2)c1 | 730 | 2100 | 120 | 2800 | – | – | –
Cc1cccc(OCCCOc2ccc(-c3ccccc3CC(C)(C)C(=O)NS(=O)(=O)c3cccs3)cc2)c1 | 1000 | 2900 | 440 | 1800 | – | – | –
